Several values for one entry are separate records, joined by “and”; a condition that tells them apart may be missing. Equal entries are not always repeated. Structures can show the parent of a compound that is named as a salt.

Intestinal-type alkaline phosphatase, sequence (P09923 whole entry, looked up): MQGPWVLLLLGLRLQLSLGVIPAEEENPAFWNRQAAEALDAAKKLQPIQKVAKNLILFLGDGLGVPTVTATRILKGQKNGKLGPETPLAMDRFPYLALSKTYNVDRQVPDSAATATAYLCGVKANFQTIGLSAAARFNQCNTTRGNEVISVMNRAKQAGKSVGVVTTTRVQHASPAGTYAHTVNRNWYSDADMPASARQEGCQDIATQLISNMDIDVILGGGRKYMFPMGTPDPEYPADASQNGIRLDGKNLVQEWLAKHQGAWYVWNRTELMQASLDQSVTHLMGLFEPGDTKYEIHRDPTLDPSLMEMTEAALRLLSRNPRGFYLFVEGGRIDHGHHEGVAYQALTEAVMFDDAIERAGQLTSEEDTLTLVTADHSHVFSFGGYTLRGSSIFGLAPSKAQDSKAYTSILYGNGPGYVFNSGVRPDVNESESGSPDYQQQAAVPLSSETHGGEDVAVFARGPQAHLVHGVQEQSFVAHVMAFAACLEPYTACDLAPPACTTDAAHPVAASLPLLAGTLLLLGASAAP

The first assay has as its target Intestinal-type alkaline phosphatase (Homo sapiens, UniProt P09923). Put plainly: human IAP enzyme inhibitors, dose response, biochemical, luminescence (AID 1017).
Conditions: not given
As for `O=C(CSc1nnc(-c2ccccc2)[nH]1)c1ccc(O)c(O)c1`, the IC50 (usually the concentration that inhibits the measured activity by half) is 5.32 µM.

For `CCOC(=O)c1cc(-c2ccc3c(c2)OCCO3)n[nH]1`, the IC50 is > 100 µM.

Consider `COc1ccc(-c2[nH]nc3oc(=O)cc(C)c23)cc1`, for which the IC50 was > 100 µM.

On to `COC(=O)c1cc(-c2ccc(Br)cc2)n[nH]1`, for which the IC50 is > 100 µM.

In the case of `COC(=O)c1cc(-c2ccc(C)cc2C)n[nH]1`, the IC50 was > 100 µM.

Take `O=C1c2ccccc2C(=O)C1c1nc2ccccc2[nH]1`: the IC50 was > 100 µM.

On to `O=C1c2c(Cl)c(Cl)c(Cl)c(Cl)c2C(=O)N1c1nnc(CCc2ccccc2)[nH]1`, for which the IC50 was > 100 µM.

In the case of `COC(=O)c1cc(-c2ccc(Cl)cc2Cl)n[nH]1`, the IC50 was > 100 µM.

Take `COc1ccc(OC)c(S(=O)(=O)Nc2cnc3ccccc3c2)c1`: the concentration for half-maximal inhibition (IC50) is > 100 µM.

Molecule `O=C(O)c1ccc2c(c1)C(=O)N(c1nc(-c3cccnc3)n[nH]1)C2=O` [1,3-dioxo-2-(5-pyridin-3-yl-1H-1,2,4-triazol-3-yl)isoindole-5-carboxylic acid] came in with an IC50 of 40.7 µM. This counts as double-digit micromolar.

`COc1ccc(-n2nnnc2SCC(=O)c2ccc(O)c(O)c2)cc1` [1-(3,4-dihydroxyphenyl)-2-(1-(4-methoxyphenyl)-1H-tetrazol-5-ylthio)ethanone] came in with an IC50 of 4.35 µM.

For the molecule `O=C(Cn1ccnc1)c1ccc(O)c(O)c1` [1-(3,4-dihydroxyphenyl)-2-(1-imidazolyl)ethanone;hydrochloride], the IC50 was 30.2 µM and 18.5 µM.

Regarding `CCc1nccn1CC(=O)c1ccc(O)c(O)c1` [1-(3,4-dihydroxyphenyl)-2-(2-ethyl-1-imidazolyl)ethanone;hydrochloride], the IC50 is > 100 µM.

As for `Cc1nc2ccccc2n1CC(=O)c1ccc(O)c(O)c1` [1-(3,4-dihydroxyphenyl)-2-(2-methyl-1-benzimidazolyl)ethanone;hydrochloride], the IC50 was > 100 µM.

Turning to `Cc1cc(C)nc(SCC(=O)c2ccc(O)c(O)c2)n1` [1-(3,4-dihydroxyphenyl)-2-(4,6-dimethylpyrimidin-2-ylthio)ethanone], the midpoint of inhibition, the IC50, lay at 49.5 µM.

`Cc1cnn(CC(=O)c2ccc(O)c(O)c2)c1` [1-(3,4-dihydroxyphenyl)-2-(4-methyl-1H-pyrazol-1-yl)ethanone] gave an IC50 of 53.3 µM.

Regarding `Cn1c(SCC(=O)c2ccc(O)c(O)c2)nnc1-c1ccccc1` [1-(3,4-dihydroxyphenyl)-2-(4-methyl-5-phenyl-4H-1,2,4-triazol-3-ylthio)ethanone], the IC50 was > 100 µM.

For `O=C(CNc1ccncc1)c1ccc(O)c(O)c1` [1-(3,4-dihydroxyphenyl)-2-(4-pyridylamino)ethanone], the IC50 is > 100 µM.

`Cc1ccc(-n2nnnc2SCC(=O)c2ccc(O)c(O)c2)cc1` [1-(3,4-dihydroxyphenyl)-2-[1-(4-methylphenyl)tetrazol-5-yl]sulfanylethanone] returned an IC50 of 3.36 µM.

In turn, `C=CCn1c(SCC(=O)c2ccc(O)c(O)c2)nnc1-c1cccnc1` [1-(3,4-dihydroxyphenyl)-2-[(4-prop-2-enyl-5-pyridin-3-yl-1,2,4-triazol-3-yl)sulfanyl]ethanone] registered an IC50 of 40.4 µM.

The molecule `C=CCn1c(SCC(=O)c2ccc(O)c(O)c2)nnc1-c1ccccc1` [1-(3,4-dihydroxyphenyl)-2-[(5-phenyl-4-prop-2-enyl-1,2,4-triazol-3-yl)sulfanyl]ethanone] showed an IC50 of 10.1 µM. Against the preceding molecule, the IC50 is about 4-fold lower.

Regarding `COc1ccccc1-c1nc(SCC(=O)c2ccc(O)c(O)c2)n[nH]1` [1-(3,4-dihydroxyphenyl)-2-[[5-(2-methoxyphenyl)-1H-1,2,4-triazol-3-yl]sulfanyl]ethanone], the IC50 was > 3.13 µM.

As to `C=CCn1c(SCC(=O)c2ccc(O)c(O)c2)nnc1-c1ccccc1OC` [1-(3,4-dihydroxyphenyl)-2-[[5-(2-methoxyphenyl)-4-prop-2-enyl-1,2,4-triazol-3-yl]sulfanyl]ethanone], the IC50 was > 6.25 µM and 20.7 µM.

`C=CCn1c(SCC(=O)c2ccc(O)c(O)c2)nnc1-c1cccc(OC)c1` [1-(3,4-dihydroxyphenyl)-2-[[5-(3-methoxyphenyl)-4-prop-2-enyl-1,2,4-triazol-3-yl]sulfanyl]ethanone] came in with a concentration for half-maximal inhibition (IC50) of 13.1 µM. In other words, the double-digit micromolar range.

As to `O=C(CSc1nnc(-c2ccccc2)[nH]1)c1ccc(O)cc1O` [1-[2,4-bis(oxidanyl)phenyl]-2-[(5-phenyl-1H-1,2,4-triazol-3-yl)sulfanyl]ethanone], the IC50 was > 100 µM.

On to `O=C(CSc1nnc(-c2ccccc2Cl)[nH]1)c1ccc(O)c(O)c1` [1-[3,4-bis(oxidanyl)phenyl]-2-[[5-(2-chlorophenyl)-1H-1,2,4-triazol-3-yl]sulfanyl]ethanone], for which the IC50 was > 100 µM.

Take `COc1ccc(OC)c(S(=O)(=O)Nc2cccnc2)c1` [2,5-Dimethoxy-N-(pyridin-3-yl)benzenesulfonamide]: the IC50 is > 100 µM.

`O=C1c2ccccc2C(=O)N1c1nncs1` [2-(1,3,4-thiadiazol-2-yl)isoindole-1,3-dione]: the IC50 is > 100 µM.

`O=C(Cn1cnc2ccccc21)c1ccc(O)c(O)c1` [2-(1-benzimidazolyl)-1-(3,4-dihydroxyphenyl)ethanone;hydrochloride] came in with an IC50 of 14.8 µM.

As to `O=C1c2ccccc2C(=O)N1c1nnc[nH]1` [2-(1H-1,2,4-triazol-5-yl)isoindole-1,3-dione], the IC50 is > 100 µM.

Consider `Cc1cc(C)nc(SCC(=O)c2ccc(O)cc2)n1` [2-(4,6-dimethylpyrimidin-2-ylthio)-1-(4-hydroxyphenyl)ethanone], for which the IC50 was > 100 µM.

For `COc1ccc(C(=O)CSc2nc(C)cc(C)n2)cc1` [2-(4,6-dimethylpyrimidin-2-ylthio)-1-(4-methoxyphenyl)ethanone], the IC50 is > 100 µM.

For the molecule `Oc1c2c(c(O)n1-c1nnc(-c3ccccc3)[nH]1)CC=CC2` [2-(5-Phenyl-2H-[1,2,4]triazol-3-yl)-3a,4,7,7a-tetrahydro-isoindole-1,3-dione], the IC50 was 0.11 µM and 0.157 µM.

On to `COc1ccc(C)cc1S(=O)(=O)Nc1cccnc1` [2-Methoxy-5-methyl-N-(pyridin-3-yl)benzenesulfonamide], for which the IC50 is > 100 µM.

As for `COc1ccc(C)cc1S(=O)(=O)Nc1cnc2ccccc2c1` [2-Methoxy-5-methyl-N-(quinolin-3-yl)benzenesulfonamide], the IC50 is > 100 µM.

On to `CCn1c(CSc2nc3ccccc3s2)nnc1SCC(=O)c1ccc(O)c(O)c1` [2-[[5-(1,3-benzothiazol-2-ylsulfanylmethyl)-4-ethyl-1,2,4-triazol-3-yl]sulfanyl]-1-(3,4-dihydroxyphenyl)ethanone], for which the IC50 is > 100 µM.

Regarding `COc1ccc(C)cc1S(=O)(=O)Nc1ccc2ccccc2c1` [2-methoxy-5-methyl-N-(2-naphthalenyl)benzenesulfonamide], the IC50 is > 100 µM.

Turning to `O=C(O)c1cc(-c2ccccc2Cl)n[nH]1` [3-(2-chlorophenyl)-1H-pyrazole-5-carboxylic acid], half-maximal inhibition (IC50) was put at 43.4 µM.

For the molecule `O=C1c2c(Cl)c(Cl)c(Cl)c(Cl)c2C(=O)N1c1nnc[nH]1` [4,5,6,7-tetrachloro-2-(1H-1,2,4-triazol-5-yl)isoindole-1,3-dione], the IC50 was > 10 µM.

For the molecule `Cn1nc(C(=O)O)cc1-c1ccc(F)cc1` [5-(4-fluorophenyl)-1-methyl-3-pyrazolecarboxylic acid], the IC50 is > 100 µM.

On to `Cn1nc(-c2ccc(F)cc2)cc1C(=O)O` [5-(4-fluorophenyl)-2-methyl-3-pyrazolecarboxylic acid], for which the IC50 is > 100 µM.

Take `CCOc1ccc(Cl)cc1S(=O)(=O)Nc1cccnc1` [5-chloro-2-ethoxy-N-(pyridin-3-yl)benzenesulfonamide]: the IC50 was > 100 µM.

For the molecule `COc1cc(C)c(Cl)cc1S(=O)(=O)Nc1cccnc1` [5-chloro-2-methoxy-4-methyl-N-(pyridin-3-yl)benzenesulfonamide], the IC50 was > 100 µM.

With `O=C(c1[nH]nc2c1COc1ccccc1-2)N1CCCC1` [(2,4-dihydrochromeno[4,3-c]pyrazol-3-yl)(pyrrolidin-1-yl)methanone], the IC50 is > 100 µM.

As to `O=C1Nc2ccccc2C1C=NCCc1ccc(O)c(O)c1` (configuration not stated) [(3E)-3-[[2-(3,4-dihydroxyphenyl)ethylamino]methylene]oxindole], the 50% inhibitory concentration (IC50) turned out to be 9.95 µM.

On to `Oc1c2c(c(O)n1-c1nnc(Cc3ccccc3)[nH]1)CC=CC2` [MLS000100008], for which the IC50 was 0.539 µM and 0.922 µM.

As to `Cc1cc(=O)oc2n[nH]c(-c3ccccc3)c12` [MLS-0013971.0001], the IC50 was > 100 µM.

In the case of `Oc1cc(-c2cccc3ccccc23)[nH]n1` [MLS-0067141.0001], the IC50 is > 100 µM.

For the molecule `COC(=O)c1cc(-c2ccc(OC)cc2)[nH]n1` [MLS-0091975.0001], the IC50 was > 100 µM.

Turning to `COC(=O)c1cc(-c2ccc3ccccc3c2)[nH]n1` [MLS-0111546.0001], the IC50 was > 100 µM.

On to `CCOC(=O)c1cc(-c2ccc(Cl)cc2)n[nH]1` [MLS-0111582.0001], for which the IC50 was > 100 µM.

For the molecule `O=C1c2c(Cl)c(Cl)c(Cl)c(Cl)c2C(=O)N1c1nc(Cc2ccccc2)n[nH]1` [MLS-0146263.0001], the IC50 was > 100 µM.

Regarding `COc1ccc2c(c1OC)C(=O)N(c1nnc(SC)[nH]1)C2=O` [MLS-0146265.0001], the IC50 was > 100 µM.

`CCc1nnc(SCC(=O)c2ccc(O)c(O)c2)[nH]1` [MLS-0315685.0001] yielded an IC50 of 1.27 µM.

Consider `CCCCOc1ccc(-c2cc(C(=O)OC)[nH]n2)cc1` [methyl 3-(4-butoxyphenyl)-1H-pyrazole-5-carboxylate], for which the IC50 was > 100 µM.

Turning to `COC(=O)c1cc(-c2ccccc2)n[nH]1` [methyl 3-phenyl-1H-pyrazole-5-carboxylate], the IC50 is > 100 µM.

The assay is the same for the next values; noted with them: inactive by the depositor's call.
Turning to `CCn1c(SCC(=O)c2ccc(O)c(O)c2)nnc1-c1ccccc1` [1-(3,4-Dihydroxy-phenyl)-2-(4-ethyl-5-phenyl-4H-[1,2,4]triazol-3-ylsulfanyl)-ethanone], the IC50 was 32.8 µM.

The values above are taken from BindingDB's records for doi:10.7270/Q2JQ0ZDS (Sanford-Burnham Center for Chemical Genomics, 2009).
